Legend:
Type in all cases: in vivo, C57BL/6J mice
[1] = tested on: high-fat diet-fed C57BL/6J mouse; test: Histopathology of epididymal white adipose tissue (adipocyte hypertrophy); details: mean area of epididymal adipocyte, HFD-fed mice
Description: Animal studies were performed and approved under the guidelines of the Institutional Animal Care and Use Committee in Taiwan (12 Mar. 2015). The 4-week old male C57BL/6J mice (total amount n=63) were obtained from the National Laboratory Animal Center (Taipei, Taiwan). After acclimatization for one week, all of the mice were randomly assigned into a control (CON) group and a high-fat diet (HFD) group. For the following 12 weeks, the CON group (n=9) received a control diet or a low-fat diet (Diet 12450B, Research Diets, Inc., New Brunswick, N.J., USA), while the HFD group (n=54) received a high-fat diet (Diet 12451, Research Diets, New Brunswick, N.J., USA). The low-fat diet was composed of protein 20%, carbohydrate 70% and fat 10%, whereas the high-fat diet was composed of protein 20%, carbohydrate 35%, and fat 45% (of total energy, % kcal). After HFD feeding for 8 weeks, the HFD group was randomly subdivided into six groups (n=9 per group) receiving different treatments and fed on HFD. […] The HF+AnK1, HF+AnK2, and HF+AnK3 groups are collectively termed AnK-treated HFD groups in the following examples. The CON mice were administered vehicle. All treatments were administered via oral gavage once daily. After administration for 4 weeks, all mice were fasted 12 hours, and blood was collected from the retro-orbital sinus under ether anesthesia. At the end of the experiment, the mice were sacrificed via carbon dioxide inhalation. Liver, adipose tissue, and skeletal muscle were collected and immediately stored at −80° C. for target gene analysis.
Parts of visceral adipose and liver specimens were fixed with formalin (200 g/kg) neutral buffered solution and embedded in paraffin. A series of 8 μm-thick sections was cut and stained with hematoxylin and eosin. For microscopic examination, a microscope (Olympus BX51, Olympus, Tokyo, Japan) was used and the images were photographed.
Adipocyte hypertrophy, the pathological enlargement of adipocytes, is often found in subjects with type 2 diabetes and hyperlipidemia. To verify the therapeutic effect of AnK on adipocyte hypertrophy, morphology of the epididymal white adipose tissue from mice of the HF group and the AnK-treated HFD groups was examined. Micrographs (magnification 200X) of the EWAT sections for each group were shown in FIG. 4 and analyzed to determine the mean area of an epididymal adipocyte.

[2] = tested on: PPARα; test: Liver mRNA by semi-quantitative RT-PCR: PPARα; details: HFD-fed mice, oral gavage once daily 4 weeks, AnK 10, 20, 40, Feno 250, Metf 300 mg/kg/day, vs HF group
Description: The 4-week old male C57BL/6J mice (total amount n=63) were obtained from the National Laboratory Animal Center (Taipei, Taiwan). After acclimatization for one week, all of the mice were randomly assigned into a control (CON) group and a high-fat diet (HFD) group. […] After HFD feeding for 8 weeks, the HFD group was randomly subdivided into six groups (n=9 per group) receiving different treatments and fed on HFD. […] The HF+AnK1, HF+AnK2, and HF+AnK3 groups are collectively termed AnK-treated HFD groups in the following examples. The CON mice were administered vehicle. All treatments were administered via oral gavage once daily. After administration for 4 weeks, all mice were fasted 12 hours, and blood was collected from the retro-orbital sinus under ether anesthesia. […]
Total RNA from liver tissue of mice was isolated with a Trizol Reagent (Molecular Research Center, Inc., Cincinnati, Ohio, USA) according to the manufacturer's instructions. The integrity of the extracted total RNA was examined by 2% agarose gel electrophoresis, and the RNA concentration was determined by the ultraviolet (UV) light absorbency at 260 nm and 280 nm (Spectrophotometer U-2800A, Hitachi). […]
Levels of mRNA of target genes were quantified by semi-quantitative reverse transcription polymerase chain reaction (RT-PCR). […] PCR products were analyzed by 2% agarose gel and stained with ethidium bromide.

[3] = tested on: phospho-AMPK (Thr^172)/total-AMPK; test: Western blotting of phospho-AMPK/total-AMPK in skeletal muscle and liver; details: HFD-induced reduction, AnK 10, 20, 40, Feno 250, Metf 300 mg/kg/day, vs HF group
Description: (§1) The 4-week old male C57BL/6J mice (total amount n=63) were obtained from the National Laboratory Animal Center (Taipei, Taiwan). After acclimatization for one week, all of the mice were randomly assigned into a control (CON) group and a high-fat diet (HFD) group. […] After HFD feeding for 8 weeks, the HFD group was randomly subdivided into six groups (n=9 per group) receiving different treatments and fed on HFD. […] The HF+AnK1, HF+AnK2, and HF+AnK3 groups are collectively termed AnK-treated HFD groups in the following examples. The CON mice were administered vehicle. All treatments were administered via oral gavage once daily. After administration for 4 weeks, all mice were fasted 12 hours, and blood was collected from the retro-orbital sinus under ether anesthesia. At the end of the experiment, the mice were sacrificed via carbon dioxide inhalation. Liver, adipose tissue, and skeletal muscle were collected and immediately stored at −80° C. for target gene analysis.
(§2) About 0.1 g of liver tissue, skeletal muscle, or adipose tissue was used for the homogenate samples. Samples were powdered under liquid nitrogen and homogenized for 20 seconds in 500 μL buffer containing 20 mM Tris-HCl (pH 7.4 at 4° C.), 2% SDS, 5 mM EDTA, 5 mM EGTA, 1 mM dithiothreitol (DTT), 100 mM NaF, 2 mM sodium vanadate, 0.5 mM phenylmethylsulfonyl fluoride, 10 μg/mL leupeptin, and 10 μL/mL pepstatin. The total membrane fraction was used for measurement. The protein concentration in supernatant was determined with a BCA protein assay kit (Thermo Scientific, Rockford, Ill., USA). […] The membrane was blocked with 5% slim milk in Tris-buffered saline (TBS)(Amersham BioSciences, Uppsala, Sweden) containing 0.05% Tween-20 (Bio Rad, CA, USA) and incubated overnight at 4° C. with antibodies at 1:200 dilution. Subsequently, the membrane was washed three times with TBS containing 0.05% Tween-20 and incubated with secondary antibody anti-rabbit (1:1000)(Jackson ImmunoResearch Laboratories, Inc., PA, USA) for 1 hour. Immunoreactive bands were detected with ECL reagent kit (GE Healthcare BioSciences, Buckinghamshire, UK). The intensity of Western blot signals was analyzed using AlphaEase FC software (Alpha Innotech Corporation, Randburg, South Africa). The structural protein GAPDH in the samples was used as the loading control.

[4] = tested on: FAS; test: Western blotting of FAS in liver and adipose tissue; details: HFD-fed mice, AnK 10, 20, 40, Feno 250, Metf 300 mg/kg/day, vs HF group; for expression levels of FAS (protein): adipose tissue; for FAS expression levels (protein): liver
Description: as §1, §2

SMILES	Adipocyte size ([1]; HF + AnK1: AnK 10 mg/kg/day oral gavage 4 weeks) [μm^2]	Adipocyte size ([1]; HF + AnK2: AnK 20 mg/kg/day oral gavage 4 weeks) [μm^2]	Adipocyte size ([1]; HF + AnK3: AnK 40 mg/kg/day oral gavage 4 weeks) [μm^2]	PPARα mRNA levels [2]	expression levels of phospho-AMPK/total-AMPK ([3]; liver)	expression levels of phospho-AMPK/total-AMPK ([3]; skeletal muscle)	expression levels of FAS (protein) [4]	FAS expression levels (protein) [4]	Adipocyte size ([1]; HF + Metf: metformin 300 mg/kg/day oral gavage 4 weeks) [μm^2]
C=C(CC[C@@H](C)[C@H]1CC[C@H]2C3=C(C(=O)C[C@]12C)[C@@]1(C)CC[C@@H](O)[C@](C)(O)[C@@H]1C[C@@H]3O)C(C)C(=O)O (stereo partly drawn) [AnK, 3α,4β,7β-trihydroxy-4α-methylergosta-8,24(28)-dien-11-on-25S-26-oic acid]	6548.6 ± 214.7	6483.8 ± 319.8	5670.8 ± 281.6	increased	significantly reversed	significantly reversed	significantly reduced	decreased	
CN(C)C(=N)N=C(N)N [Metf, metformin, reference compound]				increased	significantly reversed	significantly reversed	significantly reduced	decreased	5873.7 ± 345.1
